Laboratory results reported in article PMC4152863 (Regulatory peptides, 2013).
Several values for one entry are separate records, joined by “and”; a condition that tells them apart may be missing. Identical values can stand only once. Entries after “also recorded” stand apart in the source; their conditions may differ. Like-named read-outs stand apart in the source and are kept apart here.

Columns and labels:
[1] = target: T1, novel, non-AT1, non-AT2 angiotensin binding site (neurolysin) (Rattus norvegicus, UniProt P42676); test: Inhibition or enhancement of PCMB-unmasked 125I-SI Ang II binding in membranes
T1 sequence (P42676 38-704): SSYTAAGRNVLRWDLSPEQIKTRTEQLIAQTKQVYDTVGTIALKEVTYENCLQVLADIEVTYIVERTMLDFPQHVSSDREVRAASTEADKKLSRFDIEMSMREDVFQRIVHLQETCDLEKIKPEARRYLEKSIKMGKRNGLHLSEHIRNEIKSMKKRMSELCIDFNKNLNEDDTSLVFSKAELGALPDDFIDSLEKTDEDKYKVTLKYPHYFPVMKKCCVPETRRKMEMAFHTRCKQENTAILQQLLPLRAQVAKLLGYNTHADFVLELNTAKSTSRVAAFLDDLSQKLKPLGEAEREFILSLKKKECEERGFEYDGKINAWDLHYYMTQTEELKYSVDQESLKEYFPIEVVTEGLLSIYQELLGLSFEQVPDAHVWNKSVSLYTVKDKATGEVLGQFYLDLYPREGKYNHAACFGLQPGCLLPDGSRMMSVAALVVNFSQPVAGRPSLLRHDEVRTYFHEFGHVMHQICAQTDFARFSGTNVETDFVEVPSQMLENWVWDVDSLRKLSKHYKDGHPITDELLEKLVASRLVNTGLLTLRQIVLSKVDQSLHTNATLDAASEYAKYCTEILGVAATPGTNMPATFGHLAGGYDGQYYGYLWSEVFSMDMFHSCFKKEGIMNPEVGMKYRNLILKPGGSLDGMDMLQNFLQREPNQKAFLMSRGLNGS

[2] = target: T1, novel, non-AT1, non-AT2 angiotensin binding site (neurolysin); conditions: cited from earlier work
[3] = target: T1, novel, non-AT1, non-AT2 angiotensin binding site (neurolysin); test: Unmasking of specific 125I-SI Ang II binding in membranes
Sprague-Dawley rats = test: Drinking test after icv Ang II with or without HgCl2; type: in vivo, rat; conditions: ICV 200 pmoles HgCl2 with 100 pmoles Ang II; water intake over 30 min
liver AT1 receptors = liver AT1 receptors (Rattus norvegicus, UniProt P25095); type: binding; conditions: for Kd of 125I-SI Ang II binding: liver
liver AT1 receptors, sequence (P25095 whole entry): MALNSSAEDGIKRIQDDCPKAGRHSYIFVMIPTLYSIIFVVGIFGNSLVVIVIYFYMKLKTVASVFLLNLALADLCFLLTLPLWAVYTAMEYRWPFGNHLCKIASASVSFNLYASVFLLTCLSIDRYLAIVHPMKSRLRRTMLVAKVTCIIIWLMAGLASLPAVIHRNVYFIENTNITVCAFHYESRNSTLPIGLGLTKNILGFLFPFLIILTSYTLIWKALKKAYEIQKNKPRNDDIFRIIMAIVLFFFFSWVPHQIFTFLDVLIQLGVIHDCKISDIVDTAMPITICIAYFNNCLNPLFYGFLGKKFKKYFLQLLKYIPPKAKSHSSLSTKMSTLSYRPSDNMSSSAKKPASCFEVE

thimet oligopeptidase = conditions: cited from earlier work
neurolysin = conditions: cited from earlier work
[4] = 100 μM test compound, 100 μM PCMB, brain and testis
[5] = brain and testis, ~100 μM primary screening or range of concentrations

Q: For `NCCCNCCSP(=O)(O)O` [amifostine], which “inhibition of PCMB unmasking of 125I-SI Ang II binding, primary screening” value [1, 4] is on record?
A: more than 50%

Q: And the “inhibition in secondary screening” value ([1]; at or above 100 μM, 100 μM PCMB, data not shown)?
A: < 50%

Q: Which “reversal of PCMB unmasking of Ang II binding (in words)” value [2] does the source give for `OCCS` [2-mercaptoethanol, 2-mercaptoethanol] here?
A: reversed

Q: What does the source list for `O=C(O)c1cc[c]([Hg][OH])cc1` [4-hydroxymercuribenzoate, 4-hydroxymercuribenzoic acid]?
A: unmasking of specific 125I-SI Ang II binding in the absence of PCMB (in words) [3]: unmasked non-AT1, non-AT2 binding independent of PCMB; also recorded: partial unmasking; also recorded: capable of fully unmasking; concentration for optimal (peak) unmasking of 125I-SI Ang II binding ([3]; brain and testis): ~ 300 μM; concentration for optimal (peak) unmasking of 125I-SI Ang II binding ([3]; brain and testis, listed as 4-OH Hg bza): 300 µM; inhibition of PCMB-unmasked 125I-SI Ang II binding, primary screening (in words) [1]: moderately inhibited

Q: Which results are given for `O=[N+]([O-])[O-].[Ag+]` [AgNO3, silver nitrate]?
A: inhibition of PCMB-unmasked 125I-SI Ang II binding, primary screening (in words) [1]: significantly reduced; also recorded: substantially inhibited; IC50's for inhibition of 125I-SI Ang II binding ([1]; brain and testis, 100 μM PCMB): 1000 to 20000 nM; IC50 for inhibition of 125I-SI Ang II binding ([1]; brain, 100 μM PCMB): 1770 nM; IC50 for inhibition of 125I-SI Ang II binding ([1]; testis, 100 μM PCMB): 21300 nM

Q: For `NCCS` [cysteamine], which “inhibition of PCMB unmasking of 125I-SI Ang II binding, primary screening” value [1, 4] is on record?
A: more than 50%

Q: And the “IC50 for inhibition of 125I-SI Ang II binding” value (“IC50 for inhibition” below) ([1]; brain, 100 μM PCMB)?
A: 28100 nM

Q: And the “IC50 for inhibition” value ([1]; testis, 100 μM PCMB)?
A: 138000 nM

Q: For `[Cl][Hg][Cl]` [HgCl2, mercuric chloride], which “effect on dipsogenic response to Ang II (in words)” value (Sprague-Dawley rats) is on record?
A: lack of effect; also recorded: did not affect

Q: What about the “Bmax of 125I-SI Ang II binding” value (liver AT1 receptors) of the same compound?
A: 20.8±1.8 and 20.6±2.4 and 20.4±4.4

Q: What about the “effect on 125I-SI Ang II binding to AT1 receptors (in words)” value (liver AT1 receptors) of the same compound?
A: lack of effect; also recorded: did not impair

Q: What about the “Kd of 125I-SI Ang II binding” value (liver AT1 receptors; 10 μM HgCl2) of the same compound?
A: 2.93±0.40

Q: And the “Kd of 125I-SI Ang II binding” value (liver AT1 receptors; 30 μM HgCl2)?
A: 2.41±0.46

Q: What about the “Kd of 125I-SI Ang II binding” value (liver AT1 receptors; 100 μM HgCl2) of the same compound?
A: 3.15±1.1

Q: What about the “inhibition of PCMB-unmasked 125I-SI Ang II binding, primary screening (in words)” value (from here on “inhibition … primary screening (in words)”) [1] of the same compound?
A: significantly reduced; also recorded: substantially inhibited

Q: What about the “IC50's for inhibition of 125I-SI Ang II binding” value ([1]; brain and testis, 100 μM PCMB) of the same compound?
A: 1000 to 20000 nM

Q: What about the “IC50 for inhibition” value ([1]; brain, 100 μM PCMB) of the same compound?
A: 14300 nM

Q: What about the “IC50 for inhibition” value ([1]; testis, 100 μM PCMB) of the same compound?
A: 11000 nM

Q: What does the source list for `COC([CH2][Hg+])CNC(=O)c1ccccc1OCC(=O)O.[OH-]` (stereo not shown) [mersalyl acid]?
A: unmasking of 125I-SI Ang II binding at concentrations up to 1 mM (in words) ([3]; brain and testis, absence of PCMB, data not shown): no ability to unmask; also recorded: did not unmask; inhibition of PCMB-unmasked 125I-SI Ang II binding, primary screening (in words) [1]: full inhibition; inhibition of PCMB unmasking of 125I-SI Ang II binding, primary screening [1, 4]: more than 50%; IC50's for inhibition of 125I-SI Ang II binding ([1]; brain and testis, 100 μM PCMB): 1000 to 20000 nM; IC50 for inhibition of 125I-SI Ang II binding ([1]; brain, 100 μM PCMB): 1100 nM; IC50 for inhibition of 125I-SI Ang II binding ([1]; testis, 100 μM PCMB): 2270 nM

Q: With `NCCCNCCS` [WR-1065] as the compound, how does the “inhibition … primary screening (in words)” value [1, 4] read?
A: did not inhibit

Q: Which “unmasking of specific 125I-SI Ang II binding in the absence of PCMB (in words)” value (“unmasking … of PCMB (in words)” below) [3] does the source give for `[Cl][Mn][Cl]` [manganese chloride] here?
A: greater unmasking in testis compared to brain

Q: With `O=[N+]([O-])[O-].[Na+]` [Sodium nitrate] as the compound, how does the “inhibition … primary screening (in words)” value [1] read?
A: did not show any inhibition

Q: With `OO` [hydrogen peroxide] as the compound, how does the “inhibition … primary screening (in words)” value [1] read?
A: did not inhibit

Q: What does the source list for `O=C(O)c1cc[c]([Hg][Cl])cc1` [PCMB, parachloromercuribenzoic acid]?
A: concentration for optimal (peak) unmasking of 125I-SI Ang II binding ([3]; brain and testis): 100 to 300 µM; unmasking of Ang II binding to thimet oligopeptidase (in words) (thimet oligopeptidase): does not unmask

Q: For `O[C@@H](CS)[C@@H](O)CS` [DTT], which “reversal of PCMB unmasking of Ang II binding (in words)” value [2] is on record?
A: reversed

Q: What about the “inhibition of the enzymatic activity of neurolysin (in words)” value (neurolysin) of the same compound?
A: can be inhibited

Q: With `O=C(O)c1ccc(O)cc1` [4-hydroxybenzoic acid] as the compound, how does the “unmasking … of PCMB (in words)” value [3, 5] read?
A: did not promote

Q: Which “unmasking … of PCMB (in words)” value [3, 5] does the source give for `Cc1cc(-c2ccc(/N=N/c3ccc4c(S(=O)(=O)O)cc(S(=O)(=O)O)c(N)c4c3O)c(C)c2)ccc1/N=N/c1ccc2c(S(=O)(=O)O)cc(S(=O)(=O)O)c(N)c2c1O` [Evans blue] here?
A: unable to unmask

Q: And the “effect on 125I-SI Ang II binding in the presence of PCMB (in words)” value ([1]; 100 μM, brain and testis)?
A: enhanced

Q: What about the “Rmax for enhancement of specific 125I-SI Ang II binding in the presence of PCMB” value ([1]; brain, 100 μM PCMB) of the same compound?
A: 163±56%

Q: What about the “Rmax for enhancement of specific 125I-SI Ang II binding in the presence of PCMB” value ([1]; testis, 100 μM PCMB) of the same compound?
A: 442±340%
